The source of these data is patent publication US8415373B2, “Isoquinolinone derivatives as NK3 antagonists” (H. Lundbeck A/S, priority 2008, dated 2013).

The target in data set [1] is T1, human NK3 receptor (Homo sapiens, UniProt P29371).
T1 construct: expressed in transfected cells
T1 sequence (P29371 1-465): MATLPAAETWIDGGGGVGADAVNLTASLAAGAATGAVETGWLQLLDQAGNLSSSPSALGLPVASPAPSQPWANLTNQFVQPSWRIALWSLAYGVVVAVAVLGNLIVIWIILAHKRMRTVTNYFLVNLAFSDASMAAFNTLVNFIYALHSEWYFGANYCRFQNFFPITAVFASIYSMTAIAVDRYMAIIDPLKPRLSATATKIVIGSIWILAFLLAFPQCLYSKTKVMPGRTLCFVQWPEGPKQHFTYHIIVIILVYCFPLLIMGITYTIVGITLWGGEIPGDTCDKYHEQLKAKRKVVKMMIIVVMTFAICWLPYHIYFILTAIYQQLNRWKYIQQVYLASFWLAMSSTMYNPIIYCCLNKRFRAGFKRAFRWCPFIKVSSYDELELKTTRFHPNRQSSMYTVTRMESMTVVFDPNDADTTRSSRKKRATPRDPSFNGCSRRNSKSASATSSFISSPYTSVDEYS
Put plainly: NK3 receptor binding assay (SPA-based competition binding, 125I-NKB). The note with it: read-out: Affinity (Ki/nM). How it is done:
Membranepreparation: BHK cells stably expressing the human NK3 receptor were seeded in harvesting plates in Dulbeccos MEM containing GlutaMax (862 mg/l), 1 mM sodium pyruvate, 10% fetal calf serum, 1% Pen/Strep, 1 mg/ml G418 and were grown at 34° C. in a humidified atmosphere containing 10% CO2. To increase receptor expression, 10 μM trichotatin A was added to the media 24 hours before harvest of the cells at a confluency of app 90%. Prior to the harvesting, the cells were washed twice with PBS without Mg^2+ og Ca^2+ and subsequently scrapped of in 10 ml PBS pr harvesting plate. The cell suspension were centrifuged at 1500×G in three minutes before resuspension in 15 mM Tris-HCl pH 7.5 buffer containing 2 mM MgCl2; 0.3 mM EDTA and 1 mM EGTA (buffer A). The cell suspension was homogenised and subsequently centrifuged at 40000×G in 30 minutes. The membrane-pellet was resuspended in buffer A containing 250 mM sucrose, aliquoted and stored at −80° C.
Affinity assay description: The assay was performed as a SPA-based competition-binding assay in a 50 mM Tris pH 7.4 assay buffer containing 120 mM NaCl, 3 mM MnCl2, 40 μg/ml bacitracin, 2 μg/ml Chymostatin, 1 μg/ml Phosphoramidon and 4 μg/ml Leupeptin. […] The assay plate was subsequently under agitation incubated for 90 min at RT. The plate was centrifugated 10 minutes at 500×G and counted in a topcounter 5 minutes pr well.

For data set [2] the following is noted: Nature reviews, 4, 967-975, 2005; cited from earlier work.
For data set [3] the following is noted: Nature reviews, 4, 967-975, 2005; cited from earlier work. This is another data set of the same source.
Data set [4] concerns schizophrenics. The conditions noted are these: cited from earlier work.

For the compound `Cc1c(C(=O)N[C@H](c2cccc(F)c2)C2CC2)c2cccc(F)c2c(=O)n1Cc1cc(F)ccc1F` [Example 2d, 2-(2,5-Difluoro-benzyl)-8-fluoro-3-methyl-1-oxo-1,2-dihydro-isoquinoline-4-carboxylic acid [(S)-cyclopropyl-(3-fluoro-phenyl)-methyl]-amide], in data set [1], the Ki is 180 nM. The same measure, in the same setting: the figure for `Cc1c(C(=O)N[C@H](c2cccc(F)c2)C2CC2)c2cccc(F)c2c(=O)n1Cc1cccnc1` [Example 2b, 8-Fluoro-3-methyl-1-oxo-2-pyridin-3-ylmethyl-1,2-dihydro-isoquinoline-4-carboxylic acid [(S)-cyclopropyl-(3-fluoro-phenyl)-methyl]-amide] is 350 nM; for `CCn1ccnc1Cn1c(C)c(C(=O)N[C@H](c2cccc(F)c2)C2CCC2)c2cccc(F)c2c1=O` [Example 2ah, 2-(1-Ethyl-1H-imidazol-2-ylmethyl)-8-fluoro-3-methyl-1-oxo-1,2-dihydro-isoquinoline-4-carboxylic acid [(S)-cyclobutyl-(3-fluoro-phenyl)-methyl]-amide] it is 43 nM. Turning to `Cc1c(C(=O)N[C@H](c2cccc(F)c2)C2CC2)c2cccc(F)c2c(=O)n1Cc1ccsc1` [Example 2g, 8-Fluoro-3-methyl-1-oxo-2-thiophen-3-ylmethyl-1,2-dihydro-isoquinoline-4-carboxylic acid [(S)-cyclopropyl-(3-fluoro-phenyl)-methyl]-amide], in data set [1], the Ki is 7.8 nM.

On to `Cc1c(C(=O)N[C@H](c2cccc(F)c2)C2CC2)c2cccc(F)c2c(=O)n1Cc1ccoc1` [Example 2a, 8-Fluoro-2-furan-3-ylmethyl-3-methyl-1-oxo-1,2-dihydro-isoquinoline-4-carboxylic acid [(S)-cyclopropyl-(3-fluoro-phenyl)-methyl]-amide], for which, in data set [1], the Ki is 28 nM. Consider `Cc1cc(Cn2c(C)c(C(=O)N[C@H](c3cccc(F)c3)C3CCC3)c3cccc(F)c3c2=O)no1` [Example 2m, 8-Fluoro-3-methyl-2-(5-methyl-isoxazol-3-ylmethyl)-1-oxo-1,2-dihydro-isoquinoline-4-carboxylic acid [(S)-cyclobutyl-(3-fluoro-phenyl)-methyl]-amide], for which, in data set [1], the Ki is 33 nM. Turning to `Cc1nc(Cn2c(C)c(C(=O)N[C@H](c3cccc(F)c3)C3CCC3)c3cccc(F)c3c2=O)cs1` [Example 2ac, 8-Fluoro-3-methyl-2-(2-methyl-thiazol-4-ylmethyl)-1-oxo-1,2-dihydro-isoquinoline-4-carboxylic acid [(S)-cyclobutyl-(3-fluoro-phenyl)-methyl]-amide], in data set [1], the Ki stood at 95 nM. The same measure, in the same setting: the figure for `Cc1c(C(=O)N[C@H](c2cccc(F)c2)C2CCC2)c2cccc(F)c2c(=O)n1Cc1cocn1` [Example 2t, 8-Fluoro-3-methyl-2-oxazol-4-ylmethyl-1-oxo-1,2-dihydro-isoquinoline-4-carboxylic acid [(S)-cyclobutyl-(3-fluoro-phenyl)-methyl]-amide] is 12 nM. As for `Cc1c(C(=O)N[C@H](c2ccc(F)c(F)c2)C2CCC2)c2cccc(F)c2c(=O)n1Cc1ncco1` [Example 4b, 8-Fluoro-3-methyl-2-oxazol-2-ylmethyl-1-oxo-1,2-dihydro-isoquinoline-4-carboxylic acid [(S)-cyclobutyl-(3,4-difluoro-phenyl)-methyl]-amide], in data set [1], the Ki was 4 nM. Regarding `CC(=O)N(C)C1(c2ccccc2)CCN(CCC[C@]2(c3ccc(Cl)c(Cl)c3)CCCN(C(=O)c3ccccc3)C2)CC1` [Osanetant, osanetant], in data set [2], the bioavailability entry is on record as “poor”, the blood-brain barrier penetration result is given as “poor” and the clearance entry is “relatively high”. For the same compound, the solubility result in data set [3] is “poor”. In data set [4] (Am. J. Psychiatry, 161, 2004, 975-984), the “effect versus placebo in clinical trials, in particular on positive symptoms of psychosis” value is “superior to placebo”. For the compound `Cc1nnc(Cn2c(C)c(C(=O)N[C@H](c3cccc(F)c3)C3CCC3)c3cccc(F)c3c2=O)[nH]1` [Example 2o, 8-Fluoro-3-methyl-2-(5-methyl-4H-[1,2,4]triazol-3-ylmethyl)-1-oxo-1,2-dihydro-isoquinoline-4-carboxylic acid [(S)-cyclobutyl-(3-fluoro-phenyl)-methyl]-amide], in data set [1], the Ki was determined as 120 nM. On to `CC[C@H](NC(=O)c1c(C)n(Nc2ccccc2)c(=O)c2ccccc12)c1ccccc1` [Example 1a, 3-Methyl-1-oxo-2-phenylamino-1,2-dihydro-isoquinoline-4-carboxylic acid ((S)-1-phenyl-propyl)-amide], for which, in data set [1], the Ki was found to be 200 nM.

Turning to `Cc1cc(Cn2c(C)c(C(=O)N[C@H](c3cccc(F)c3)C3CCC3)c3cccc(F)c3c2=O)[nH]n1` [Example 2p, 8-Fluoro-3-methyl-2-(5-methyl-2H-pyrazol-3-ylmethyl)-1-oxo-1,2-dihydro-isoquinoline-4-carboxylic acid [(S)-cyclobutyl-(3-fluoro-phenyl)-methyl]-amide], the Ki in data set [1] was 28 nM. In the case of `CC[C@H](NC(=O)c1c(O)c(-c2ccccc2)nc2ccccc12)c1ccccc1` [talnetant], in data set [2], the bioavailability result is reported as “poor”, the blood-brain barrier penetration result is recorded as “poor” and the clearance result is reported as “relatively high”. In data set [3], the solubility entry is listed as “poor”. In data set [4] (Curr. Opion. Invest. Drug, 6, 717-721, 2005), the “effect on cognitive behaviour of schizophrenics in clinical trials” value is given as “ameliorate”.

In the case of `Cc1nonc1Cn1c(C)c(C(=O)N[C@H](c2cccc(F)c2)C2CCC2)c2cccc(F)c2c1=O` [Example 2v, 8-Fluoro-3-methyl-2-(4-methyl-furazan-3-ylmethyl)-1-oxo-1,2-dihydro-isoquinoline-4-carboxylic acid [(S)-cyclobutyl-(3-fluoro-phenyl)-methyl]-amide], the Ki in data set [1] was found to be 6.6 nM.
